# According to paper PMC12567141, “Design, Synthesis and Biological Evaluation of Pyrazolopyrimidine Derivatives as Aryl Hydrocarbon Receptor Antagonists for Colorectal Cancer Immunotherapy” (Pharmaceutics, 2025):
# Legend:
# MC38/Luc cells = assay: Cytotoxic T lymphocyte (CTL) assay; type: cell-based; details: splenocytes of treated tumour-bearing mice, effector:target 10:1, luciferase activity
# Protocol: Splenocytes were collected from tumour-bearing mice and stimulated with a cell activation cocktail (BioLegend) for 6 h. MC38/Luc cells as target cells were seeded in black, clear-bottomed 96-well plates (1 × 10^4 cells). After overnight incubation, splenocytes as effectors were added into wells containing target cells at an effector to target ratio of 10:1. LLC/Luc and CT26/Luc cells were used as negative target cells. Eleven hours later, luciferase activity was measured with an IVIS Lumina III instrument (PerkinElmer, Waltham, MA, USA).
# [1] = tested on: normal cells (CHO, L929, CCD-18Co); assay: Cell viability assay (CCK-8), normal cells; type: cell-based; details: 24 h, 7k: CHO, SR-1: CCD-18Co
# Protocol: Chinese hamster ovary CHO cells, mouse fibroblast L929 cells, normal colon CCD18-Co cells, monkey kidney fibroblast COS-7 cells, colorectal cancer cells including HCT-116, RKO, SW480, SW620, CT26, and MC38 cells were purchased from ATCC (American Type Culture Collection). CHO, L929, Cos-7, and all cancer cells were maintained in RPMI 1640 or DMEM supplemented with 10% FBS (Gibco FBS; Thermo Fisher Scientific, Hanover Park, IL, USA) and 1% streptomycin/penicillin. CCD18-Co cells were cultured in high-glucose Dulbecco modified Eagle medium containing 10% FBS and 1% streptomycin/penicillin. All cells were grown in 5% CO2 at 37 °C. Mycoplasma testing was regularly performed every month using the BioMycoX Mycoplasma PCR Detection Kit (CellSafe, Yongin, Republic of Korea).
# Cell viability was analyzed using a Cell Counting Kit-8 (Dojindo molecular technologies, Rockville, MD, USA). Cells were seeded in 96-well plates and treated with different concentrations of 7k. At the indicated time points, CCK-8 (10 μL/well) reagents were added to the cells, followed by further incubation at 37 °C for 90 min. The absorbance at 450 nm was measured using a plate reader (BioTek instruments, Winooski, VT, USA).
# AhR [2] = biological target: AhR (Danio rerio, UniProt Q9YGV3); assay: IC50 determination, Cyp1a dual luciferase reporter assay in transfected COS-7 cells; type: cell-based; details: AhR2/ARNT-1c/Cyp1a-luciferase, TCDD 10 nM
# AhR (Danio rerio, UniProt Q9YGV3), sequence (Q9YGV3 1-1027): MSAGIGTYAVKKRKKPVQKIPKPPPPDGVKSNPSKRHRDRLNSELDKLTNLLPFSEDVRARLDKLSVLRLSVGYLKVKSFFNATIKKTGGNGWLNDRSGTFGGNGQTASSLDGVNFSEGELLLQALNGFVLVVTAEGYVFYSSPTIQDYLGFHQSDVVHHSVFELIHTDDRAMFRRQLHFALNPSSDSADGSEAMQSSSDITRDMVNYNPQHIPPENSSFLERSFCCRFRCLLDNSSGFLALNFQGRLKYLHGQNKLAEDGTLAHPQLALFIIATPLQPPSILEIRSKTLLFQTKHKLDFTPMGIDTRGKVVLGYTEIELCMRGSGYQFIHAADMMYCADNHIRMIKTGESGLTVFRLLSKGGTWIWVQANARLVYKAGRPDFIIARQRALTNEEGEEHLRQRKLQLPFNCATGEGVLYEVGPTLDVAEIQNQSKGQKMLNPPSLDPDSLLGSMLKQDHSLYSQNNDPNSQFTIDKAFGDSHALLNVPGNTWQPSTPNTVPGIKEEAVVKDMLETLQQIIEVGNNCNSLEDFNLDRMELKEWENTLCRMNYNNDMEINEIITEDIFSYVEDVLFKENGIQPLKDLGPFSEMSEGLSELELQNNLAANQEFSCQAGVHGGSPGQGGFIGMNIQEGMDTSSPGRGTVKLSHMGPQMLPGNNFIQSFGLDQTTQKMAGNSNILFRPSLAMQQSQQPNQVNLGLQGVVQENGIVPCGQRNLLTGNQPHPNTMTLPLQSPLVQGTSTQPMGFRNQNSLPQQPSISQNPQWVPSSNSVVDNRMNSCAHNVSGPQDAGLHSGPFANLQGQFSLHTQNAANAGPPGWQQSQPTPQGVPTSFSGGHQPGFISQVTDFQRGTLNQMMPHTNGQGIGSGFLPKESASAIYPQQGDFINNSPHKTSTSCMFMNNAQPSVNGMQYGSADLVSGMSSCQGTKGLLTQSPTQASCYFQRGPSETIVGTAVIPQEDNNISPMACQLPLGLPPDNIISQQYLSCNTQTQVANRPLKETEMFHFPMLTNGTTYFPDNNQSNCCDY
# AhR (Danio rerio, UniProt Q9YGV3), sequence (Q64FF9 1-503 partner): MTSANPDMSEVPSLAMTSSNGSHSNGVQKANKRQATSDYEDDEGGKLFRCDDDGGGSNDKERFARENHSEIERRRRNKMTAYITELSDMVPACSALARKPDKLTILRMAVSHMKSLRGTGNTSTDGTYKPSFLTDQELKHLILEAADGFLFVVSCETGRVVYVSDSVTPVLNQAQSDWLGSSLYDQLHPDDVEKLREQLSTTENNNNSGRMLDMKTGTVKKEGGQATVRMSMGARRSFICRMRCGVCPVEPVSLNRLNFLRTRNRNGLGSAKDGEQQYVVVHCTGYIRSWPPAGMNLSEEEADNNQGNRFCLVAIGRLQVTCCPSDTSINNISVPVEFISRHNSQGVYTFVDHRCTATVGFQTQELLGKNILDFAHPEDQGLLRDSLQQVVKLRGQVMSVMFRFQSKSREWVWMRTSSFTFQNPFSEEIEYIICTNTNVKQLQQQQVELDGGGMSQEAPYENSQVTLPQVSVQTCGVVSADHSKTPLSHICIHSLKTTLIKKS
# Protocol: All experiments were conducted as described previously unless stated otherwise. COS-7 cells were seeded onto 24-well plate until approximately 65% confluency. The cells were transfected with ARNT-1c expression plasmid (50 ng), AhR2 expression plasmid (5 ng), Cyp1a-firefly luciferase reporter plasmid (20 ng) and pRL-TK Renilla luciferase plasmid (2 ng) using Lipofectamine 3000 (Thermo Fisher Scientific) according to the manufacturer’s protocol. The pEGFP-C1 plasmid (Clontech, Tempe, AZ, USA) was used to assess the transfection efficiency. At 5 h post transfection, serially diluted test compounds at indicated concentration were added to the cells. Simultaneously, TCDD (10 nM) or indicated compounds with the highest concentration were added in the control wells. At 1 h post compound treatment, TCDD (10 nM) was added to all wells except the control wells. At 18 h post TCDD treatment, the medium was removed, and the cells washed with Dulbecco’s phosphate buffered saline (DPBS) and harvested using 1x Passive Lysis Buffer (Promega, Madison, WI, USA). The dual luciferase assay was carried out using a Dual-Luciferase Reporter Assay System (Promega, Madison, WI, USA) and an Orion L Microplate Luminometer (Titertek Berthold, Pforzheim, BW, Germany) as per manufacturer’s protocol. The relative light unit (RLU) values were normalized and expressed as toxic induced ratio (TIR). IC50 was determined using Prism 9.0 (GraphPad Software).
# HCT-116 cells = assay: Clonogenic assay; type: cell-based; details: colorectal cancer cells vs vehicle-treated cells
# Protocol: Cells were plated into 6-well plates and left for 48 h. After treatment with 5, 10 μM 7k for 24 h, the drug-containing medium was discarded, and cells were washed twice with PBS and left in complete culture medium for the time corresponding to six doublings. Finally, cells were fixed in 4% Paraformaldehyde (PFA) solution and stained with 0.05% crystal violet.
# AhR [3] = assay: AhR antagonist screening using Tg(cyp1a:egfp) zebrafish; type: in vivo; set-up: key to AhR Antagonist Activity at 100 nM: - no inhibition; + weak; ++ mild; +++ moderate; ++++ high; +++++ very high
# Protocol: At 30 hpf, Tg(cyp1a:egfp) embryos were placed in a 2-mL screw-capped glass vial with five embryos per vial. Each vial contained 1 mL of E3 media (5 mM NaCl, 0.17 mM KCl, 0.33 mM CaCl2·2H2O and 0.4 mM MgCl2·6H2O, pH 7.2) and supplemented with 2 nM TCDD (1746-01-6; AccuStandard Inc., New Haven, NH, USA) dissolved in DMSO. The compounds were subsequently diluted and individually introduced into the vials, achieving a final concentration of 0.1% DMSO. The embryos were then incubated for 48 h and then embryonic EGFP expression was evaluated using a fluorescent stereomicroscope (SteREO Discovery V8; Zeiss, Oberkochen, BW, Germany). As a positive control, StemRegenin1 (72342, […] Technologies, Vancouver, BC, Canada) was employed.
# To evaluate AhR antagonistic activity, we conducted an AhR antagonist assay using transgenic zebrafish. Zebrafish have garnered significant attention as model organisms for drug discovery because they share metabolic pathways with mammals. […] Therefore, we synthesized more meta substituted phenyl derivatives. […] We also synthesized heteroaromatic derivatives including pyrimidine and pyridine at 5-position; however, their activities were decreased.
smiles,measurement,setting,value
"CC(C)n1cc2nc(-c3cc(F)cc(F)c3)nc(NCCc3c[nH]c4ccccc34)c2n1 [Compound 7k, N-(2-(1H-indol-3-yl)ethyl)-5-(3,5-difluorophenyl)-2-isopropyl-2H-pyrazolo [4,3-d]pyrimidin-7-amine]",CTL-mediated killing activity against MC38-luc cells,MC38/Luc cells,minimal killing activity
same,cell viability of normal cells,[1],few antiproliferative effects
same,IC50,AhR [2],13.7 nM
same,colony formation ability,HCT-116 cells,significant decrease in the colony formation ability
same,"AhR antagonistic activity in zebrafish, in words","AhR [3]; Tg(cyp1a:egfp) zebrafish, EGFP readout",significant antagonistic activity against AhR
same,AhR Antagonist Activity at 100 nM,"AhR [3]; extent of GFP reduction in Tg(cyp1a:egfp) zebrafish compared to the TCDD (2 nM) control, 100 nM, 48 h",+++++
